# From US20150004134A1, “TREATMENT OF CANCER WITH HETEROCYCLIC INHIBITORS OF GLUTAMINASE” (Calithera Biosciences, Inc., priority 2012, published 2015)
# pIC50: −log10 of the molar value. Like-named read-outs stand apart in the source and are kept apart here.
# Key:
# P493-6 (myc "on") cells = assay: Cell Proliferation Assay; assay type: cell-based; details: P493-6, 72 h
# Outline: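 P493-6 cells with myc on, 10,000 per well in RPMI/10% FBS, exposed to serially diluted compound (0.5% DMSO final) for 72 h at 37 °C, 5% CO2. Antiproliferative effect read by Cell Titer Glo luminescence or Viacount FACS viability count.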
# [1] = molecular target: T1, recombinant form of Glutaminase 1 (GAC) (Homo sapiens, UniProt O94925); assay: Recombinant Enzyme Assay - Time Dependence (60 min preincubation); assay type: biochemical; details: read-out: GAC Delta N2 IC50 60 min preinc
# T1 sequence (O94925 137-598 isoform O94925-3 limits assumed): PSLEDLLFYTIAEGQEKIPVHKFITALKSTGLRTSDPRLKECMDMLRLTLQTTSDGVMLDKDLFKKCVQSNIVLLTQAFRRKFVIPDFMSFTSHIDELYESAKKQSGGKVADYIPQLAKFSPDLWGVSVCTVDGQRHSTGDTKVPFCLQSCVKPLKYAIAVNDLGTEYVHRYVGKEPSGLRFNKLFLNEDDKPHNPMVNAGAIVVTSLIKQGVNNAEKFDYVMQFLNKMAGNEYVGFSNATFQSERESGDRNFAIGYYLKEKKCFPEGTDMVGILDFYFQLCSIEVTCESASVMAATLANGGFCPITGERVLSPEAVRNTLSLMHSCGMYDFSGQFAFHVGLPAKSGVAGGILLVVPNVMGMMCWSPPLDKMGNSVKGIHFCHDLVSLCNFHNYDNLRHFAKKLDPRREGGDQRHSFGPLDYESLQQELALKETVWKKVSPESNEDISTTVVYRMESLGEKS
# Outline: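 Enzyme and compound preincubated 60 min at 20° C; reaction started with substrate buffer (50 mM Tris-HCl pH 8.0, 150 mM K2HPO4, 1 mM DTT, 20 mM L-glutamine, 2 mM NAD^+). NADH formation followed at 340 nm in kinetic mode for 15 min at 20° C; slopes (mAU/min) compared with DMSO and control-compound wells.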
# [2] = molecular target: T1, recombinant form of Glutaminase 1 (GAC); assay: Recombinant Enzyme Assay (no preincubation); assay type: biochemical; details: read-out: GAC Delta N2 IC50 no preinc;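 note: GDH-coupled GAC activity read as absorbance at 340 nm in kinetic mode over 15 min at 20 °C, slopes compared with a DMSO-only control, lower slope means inhibition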
# Procedure: Compounds were assessed for their ability to inhibit the enzymatic activity of a recombinant form of Glutaminase 1 (GAC) using a biochemical assay that couples the production of glutamate (liberated by GAC) to glutamate dehydrogenase (GDH) and measuring the change in absorbance for the reduction of NAD^+ to NADH. […] Enzymatic reaction was started with the addition of 50 μL of enzyme solution (50 mM Tris-HCl pH 8.0, 0.2 mM EDTA, 150 mM K2HPO4, 0.1 mg/ml BSA, 1 mM DTT, 10 ppm antifoam, 4 units/ml GDH, 4 mM adenosine diphosphate, and 4 nM GAC) and read in a Molecular Devices M5 plate reader at 20° C. The plate reader was configured to read absorbance (λ=340 nm) in kinetic mode for 15 minutes. Data was recorded as milli-absorbance units per minute and slopes were compared to a control compound and a DMSO-only control on the same plate. Compounds with slopes less than the DMSO control were considered inhibitors and plate variability was assessed using the control compound.
# [3] = read-out: Cell prolif P493 72 h IC50, P493 cells, 72 h
# [4] = read-out: Cell prolif P493 72 h IC50, P493-6 cells, 72 h
smiles,measurement,setting,value
O=C(Cc1ccccc1)Nc1nnc(CCCCc2ccc(NC(=O)C(O)c3cccc(Cl)c3)nn2)s1 (stereo not shown) [Compound 365],pIC50,"P493-6 (myc ""on"") cells; [3]",7.05
same,pIC50,[1],8.05
same,pIC50,[2],7.04
O=C(Cc1ccccc1)Nc1nnc(CCCCc2ccc(NC(=O)C(O)c3ccccc3)nn2)s1 (stereo not shown) [Compound 364],pIC50,"P493-6 (myc ""on"") cells; [3]",6.59
same,pIC50,[1],7.52
same,pIC50,[2],6.82
O=C(Cc1cccc2ncccc12)Nc1nnc(CCCCc2nnc(NC(=O)Cc3cccc4ncccc34)s2)s1 [Compound 641],pIC50,"P493-6 (myc ""on"") cells; [4]",6.30
same,pIC50,[2],6.85
O=C(Cc1ccccc1)Nc1ccc(CCCCc2nnc(NC(=O)C(O)c3cc(F)cc(F)c3)s2)nn1 (stereo not shown) [Compound 351],pIC50,"P493-6 (myc ""on"") cells; [3]",7.31
same,pIC50,[2],6.96
O=C(Nc1nnc(CCSCc2nnc(NC(=O)C(CO)c3ccccc3)s2)s1)C(CO)c1ccccc1 (stereo not shown) [Compound 239],pIC50,"P493-6 (myc ""on"") cells; [3]",6.52
same,pIC50,[2],6.52
"O=C(Nc1nnc(CCCCc2nnc(NC(=O)C(CO)c3ccccc3)s2)s1)C(CO)c1ccccc1 (stereo not shown) [Compound 36, N,N′-[5,5′-(butane-1,4-diyl)-bis(1,3,4-thiadiazole-5,2-diyl)]-bis(3-hydroxy-2-phenylpropanamide)]",pIC50,"P493-6 (myc ""on"") cells; [3]",6.80
same,pIC50,[1],7.40
same,pIC50,[2],6.66
COc1cccc(CC(=O)Nc2nnc(CCSCc3nnc(NC(=O)Cc4cccc(OC)c4)s3)s2)c1 [Compound 250],pIC50,"P493-6 (myc ""on"") cells; [3]",6.85
same,pIC50,[2],6.92
Nc1cccc(CC(=O)Nc2nnc(CCSCCc3nnc(NC(=O)Cc4cccc(N)c4)s3)s2)c1 [Compound 99],pIC50,"P493-6 (myc ""on"") cells; [3]",6.00
same,pIC50,[2],5.57
O=C(O)Cc1cccc(CC(=O)Nc2nnc(CCCCc3nnc(NC(=O)Cc4cccc(CC(=O)O)c4)s3)s2)c1 [Compound 313],pIC50,"P493-6 (myc ""on"") cells; [3]",4.03
same,pIC50,[2],6.57
COc1cccc(CC(=O)Nc2nnc(CCCCc3nnc(NC(=O)Cc4cccc(OC)c4)s3)s2)c1 [Compound 159],pIC50,"P493-6 (myc ""on"") cells; [3]",7.30
same,pIC50,[2],6.96
O=C(Cc1ccccc1)Nc1nnc(CCSCCc2nnc(NC(=O)C(CO)c3ccccc3)s2)s1 (stereo not shown) [Compound 29],pIC50,"P493-6 (myc ""on"") cells; [3]",5.39
same,pIC50,[2],6.25
COc1cccc(CC(=O)Nc2nnc(CCCCc3ccc(NC(=O)Cc4ccccc4)nn3)s2)c1 [Compound 353],pIC50,"P493-6 (myc ""on"") cells; [3]",7.68
same,pIC50,[2],7.31
COc1ccc(CC(=O)Nc2nnc(CCCCc3nnc(NC(=O)Cc4ccc(OC)cc4)s3)s2)cc1 [Compound 163],pIC50,"P493-6 (myc ""on"") cells; [3]",< 4.30
same,pIC50,[2],6.89
CCOC(=O)Nc1nnc(CCCCc2nnc(NC(=O)Cc3ccccc3)s2)s1 [Compound 244],pIC50,"P493-6 (myc ""on"") cells; [3]",5.77
same,pIC50,[2],6.08
Nc1ccc(CCCCc2nnc(NC(=O)Cc3cccc(OCc4ccccc4)c3)s2)nn1 [Compound 385],pIC50,"P493-6 (myc ""on"") cells; [3]",6.14
same,pIC50,[2],6.59
O=C(Cc1ccccc1)Nc1nnc(CCCCc2nnc(NC(=O)Cc3ccccn3)s2)s1 [Compound 310],pIC50,"P493-6 (myc ""on"") cells; [3]",6.92
same,pIC50,[2],7.08
O=C(Cc1ccccc1)Nc1ccc(CCCCc2nnc(NC(=O)Cc3cccc(-n4ccnc4)c3)s2)nn1 [Compound 379],pIC50,"P493-6 (myc ""on"") cells; [3]",7.42
same,pIC50,[2],7.01
O=C(Cc1ccccc1)Nc1ccc(CCCCc2nnc(NC(=O)Cc3ccc(O)c(Cl)c3)s2)nn1 [Compound 336],pIC50,"P493-6 (myc ""on"") cells; [3]",7.28
same,pIC50,[2],7.17
O=C(Cc1cccc(CN2CCNCC2)c1)Nc1nnc(CCSCc2nnc(NC(=O)Cc3cccc(CN4CCNCC4)c3)s2)s1 [Compound 276],pIC50,"P493-6 (myc ""on"") cells; [3]",4.25
same,pIC50,[2],5.82
O=C(Cc1ccccc1)Nc1ccc(CCCCc2nnc(NC(=O)[C@H](O)c3cccc(Cl)c3)s2)nn1 [Compound 340],pIC50,"P493-6 (myc ""on"") cells; [3]",7.42
same,pIC50,[2],7.02
CC(C)(C)OC(=O)NCc1cccc(CC(=O)Nc2nnc(CCCCc3nnc(NC(=O)Cc4ccccc4)s3)s2)c1 [Compound 375],pIC50,"P493-6 (myc ""on"") cells; [3]",7.39
same,pIC50,[1],8.30
same,pIC50,[2],6.42
O=C(Cc1ccccc1)Nc1ccc(CCCCc2nnc(NC(=O)C(CO)c3ccccc3)s2)nn1 (stereo not shown) [Compound 314],pIC50,"P493-6 (myc ""on"") cells; [3]",7.32
same,pIC50,[2],6.85
O=C(CCCCN1CCOCC1)OCN(C(=O)Cc1ccccc1)c1nnc(CCSCCc2nnc(N(COC(=O)OCCCN3CCOCC3)C(=O)Cc3ccccc3)s2)s1 [Compound 28],pIC50,"P493-6 (myc ""on"") cells; [3]",6.00
same,pIC50,[2],< 4.30
O=C(Nc1nnc(CCSCCc2nnc(NC(=O)C3COc4ccccc43)s2)s1)C1COc2ccccc21 (stereo not shown) [Compound 133],pIC50,"P493-6 (myc ""on"") cells; [3]",6.82
same,pIC50,[2],6.29
O=C(Cc1cccc(OCCO)c1)Nc1nnc(CCCCc2nnc(NC(=O)Cc3cccc(OCCO)c3)s2)s1 [Compound 235],pIC50,"P493-6 (myc ""on"") cells; [3]",6.68
same,pIC50,[2],6.96
O=C(Cc1ccccc1)Nc1ccc(CCCCc2nnc(NC(=O)Cc3cccc(OCc4ccccc4)c3)s2)nn1 [Compound 338],pIC50,"P493-6 (myc ""on"") cells; [3]",7.37
same,pIC50,[2],6.82
C=C(C(=O)Nc1nnc(CCCCc2nnc(NC(=O)C(OCC(=O)CCN3CCOCC3)c3ccccc3)s2)s1)c1ccccc1 (stereo not shown) [Compound 281],pIC50,"P493-6 (myc ""on"") cells; [3]",6.18
same,pIC50,[2],6.13
NCc1cccc(CC(=O)Nc2ccc(CCCCc3nnc(NC(=O)Cc4ccccc4)s3)nn2)c1 [Compound 368],pIC50,"P493-6 (myc ""on"") cells; [3]",7.77
same,pIC50,[1],8.05
same,pIC50,[2],6.96
Cc1nccn1Cc1cccc(CC(=O)Nc2nnc(CCCCc3ccc(NC(=O)Cc4ccccc4)nn3)s2)c1 [Compound 380],pIC50,"P493-6 (myc ""on"") cells; [3]",7.72
same,pIC50,[2],6.92
O=C(Cc1cccc(OCCN2CCOCC2)c1)Nc1nnc(CCCCc2nnc(NC(=O)Cc3cccc(OCCN4CCOCC4)c3)s2)s1 [Compound 241],pIC50,"P493-6 (myc ""on"") cells; [3]",6.06
same,pIC50,[2],6.42
CC(C)(C)OC(=O)NCc1cccc(CC(=O)Nc2nnc(CCCCc3nnc(NC(=O)Cc4cccc(CNC(=O)OC(C)(C)C)c4)s3)s2)c1 [Compound 324],pIC50,"P493-6 (myc ""on"") cells; [3]",7.00
same,pIC50,[2],5.34
O=C(Cc1ccccn1)Nc1nnc(CCCCc2nnc(NC(=O)Cc3ccccn3)s2)s1 [Compound 307],pIC50,"P493-6 (myc ""on"") cells; [3]",5.03
same,pIC50,[2],5.19
O=C(Cc1ccccn1)Nc1ccc(CCCCc2nnc(NC(=O)Cc3ccccc3)s2)nn1 [Compound 383],pIC50,"P493-6 (myc ""on"") cells; [3]",7.66
same,pIC50,[2],7.07
CCOC(=O)NCc1cccc(CC(=O)Nc2ccc(CCCCc3nnc(NC(=O)Cc4ccccc4)s3)nn2)c1 [Compound 384],pIC50,"P493-6 (myc ""on"") cells; [3]",8.30
same,pIC50,[1],8.52
same,pIC50,[2],7.09
NCc1cccc(CC(=O)Nc2nnc(CCCCc3nnc(NC(=O)Cc4cccc(CN)c4)s3)s2)c1 [Compound 325],pIC50,"P493-6 (myc ""on"") cells; [3]",7.52
same,pIC50,[1],6.77
same,pIC50,[2],6.18
O=C(Cc1cccc2[nH]ncc12)Nc1nnc(CCCCc2nnc(NC(=O)Cc3cccc4[nH]ncc34)s2)s1 [Compound 640],pIC50,"P493-6 (myc ""on"") cells; [4]",7.15
same,pIC50,[2],6.92
O=C(Nc1nnc(CCSCCc2nnc(NC(=O)C(CO)c3ccccc3)s2)s1)C(CO)c1ccccc1 (stereo not shown) [Compound 24],pIC50,"P493-6 (myc ""on"") cells; [3]",5.64
same,pIC50,[2],6.29
COc1cc(CC(=O)Nc2nnc(CCCCc3nnc(NC(=O)Cc4cc(OC)cc(OC)c4)s3)s2)cc(OC)c1 [Compound 205],pIC50,"P493-6 (myc ""on"") cells; [3]",5.39
same,pIC50,[2],6.42
O=C(Cc1ccccc1)Nc1ccc(CCCCc2nnc(NC(=O)Cc3cccnc3)s2)nn1 [Compound 355],pIC50,"P493-6 (myc ""on"") cells; [3]",7.41
same,pIC50,[2],7.00
O=C(Cc1cccc2cnccc12)Nc1nnc(CCCCc2nnc(NC(=O)Cc3cccc4cnccc34)s2)s1 [Compound 639],pIC50,"P493-6 (myc ""on"") cells; [4]",4.64
same,pIC50,[2],6.77
CCOC(=O)NCc1cccc(CC(=O)Nc2nnc(CCCCc3ccc(NC(=O)Cc4ccccc4)nn3)s2)c1 [Compound 382],pIC50,"P493-6 (myc ""on"") cells; [3]",8.15
same,pIC50,[1],8.52
same,pIC50,[2],7.00
COc1cccc(CC(=O)Nc2nnc(CCSCCc3nnc(NC(=O)Cc4ccccn4)s3)s2)c1 [Compound 360],pIC50,"P493-6 (myc ""on"") cells; [3]",6.17
same,pIC50,[2],6.55
O=C(Cc1ccccc1)Nc1ccc(CCCCc2nnc(NC(=O)Cc3cccc(O)c3)s2)nn1 [Compound 337],pIC50,"P493-6 (myc ""on"") cells; [3]",7.68
same,pIC50,[2],7.14
